Measured values from patent publication US20250099596A1, “TETRAHYDRONAPHTHALENE COMPOUND, AND PREPARATION METHOD THEREFOR AND USE THEREOF IN MEDICINE” (Jiangsu Hengrui Pharmaceuticals Co., Ltd., priority 2021, published 2025).
Like-named read-outs stand apart in the source and are kept apart here.

Tests used:
[1] = Pharmacokinetic evaluation, beagle test; assay type: in vivo; conditions: beagles; for AUC(0-t): read-out: Area under curve AUC0-t; for half-life: read-out: Half-life T1/2 (converted); for Cmax: read-out: Plasma concentration Cmax
Protocol: With beagles as test animals, the plasma concentrations of the compound of Example 26-1 and Comparative Example 1 were determined by LC/MS/MS at different time points after intragastric (i.g.)/intravenous (i.v.) administration to beagles. The pharmacokinetic behavior of the compound of the present disclosure in beagles was studied and its pharmacokinetic profile was evaluated.
The compound of Example 26-1 and Comparative Example 1 (see patent WO2018102725A1, Example 411), whose structure is shown below:
Sixteen beagles, of which half were male and half female, were evenly divided into 4 groups. The beagles were provided by Shanghai Medicilon Inc. The 4 groups were fasted overnight and then dosed intragastrically and intravenously.
Certain amounts of the compound of Example 26-1 and the compound of Comparative Example 1 were weighed out and mixed with 5% (v/v) DMSO+30% (v/v) PG+30% (v/v) PEG400+35% (v/v) normal saline to make 0.4 mg/mL clear solutions (for the intragastric administration groups) and 0.25 mg/mL clear solutions (for the intravenous administration groups).
The intragastric administration groups: the dose was 2.0 mg/kg, and the volume was 5.0 mL/kg.
The intravenous administration groups: the dose was 0.5 mg/kg, and the volume was 2.0 mL/kg.
The intragastric administration group: Blood (1.0 mL) was collected from the jugular vein or the forelimb vein into EDTA-K2 anticoagulation tubes before administration and 0.25 h, 0.5 h, 1.0 h, 2.0 h, 4.0 h, 6.0 h, 8.0 h, 12.0 h and 24.0 h after administration and centrifuged at 10,000 rpm for 5 min (4° C.). The plasma was separated within 1 h and stored at −80° C. before analysis. The process from blood collection to centrifugation was performed in an ice bath. Three hours after administration, feeding was resumed.
The intravenous administration groups: Blood was collected before administration and 5 min, 0.25 h, 0.5 h, 1.0 h, 2.0 h, 4.0 h, 8.0 h, 12.0 h and 24 h after administration and processed as in the intragastric administration groups.
The plasma concentrations of the test compounds were determined after administration of different concentrations of the test compounds to beagles: plasma samples (50 μL) were collected from beagles at various time points after administration, and proteins were precipitated with 500 μL of methanol (containing 100 ng/mL internal standard Verapamil) for each of the samples; the mixtures were vortexed for 1 min and centrifuged at 18,000 g for 7 min. 500 μL of supernatant was transferred to a 96-well plate. 1 μL of supernatant was collected for LC/MS/MS analysis.

[2] = test system: MCF7/ERα Y537S cells; experiment: Inhibitory activity on proliferation of ERα mutant-expressing MCF7 cells; assay type: cell-based; conditions: Homo sapiens, 144 h, 6 days incubation, CellTiter-Glo, read-out: IC50 (nM), inhibition of proliferation of ERα mutant-expressing MCF7 cells
Protocol: The objective of this experiment was to determine the inhibitory activity of the compounds of the present disclosure on the proliferation of ERα mutant-expressing MCF7 cells.
(§1) MCF7 cells expressing the ERα Y537S mutant were constructed by lentiviral infection. MCF7/ERα Y537S cells were cultured in an MEM (GE Healthcare, SH30024.01) complete medium containing 10% fetal bovine serum and 1 g/mL puromycin. On day 1 of the experiment, cells were seeded into a 96-well plate at a density of 3,000 cells/well using MEM containing 2% fetal bovine serum, with each well containing 135 µL of cell suspension. The plate was incubated in a 37° C., 5% CO2 cell incubator overnight. The next day, different concentrations of test compounds prepared in media were added at 15 μL/well. The final concentrations of the compounds were 9 concentration points obtained by 4-fold serial dilution from 1000 nM. A blank control containing 0.5% DMSO was set up. The plate was incubated in a 37° C., 5% CO2 cell incubator for 6 days. On day 8, the 96-well cell culture plate was taken out, and CellTiter-Glo® Luminescent Cell Viability Assay (Promega, G7573) was added at 75 µL/well. After the plate was left at room temperature for 10 min, luminescence signal readings were taken on a multilabel microplate reader (PerkinElmer, VICTOR 3). The IC50 values for the inhibitory activity of the compounds were calculated from the concentrations of the compounds and the luminescence signal readings using Graphpad Prism software.

[3] = test system: MCF7 cells; experiment: Inhibitory effects on MCF7 cell proliferation (CellTiter-Glo); assay type: cell-based; conditions: Homo sapiens, 144 h, 6 days incubation, read-out: IC50 (nM), inhibition of MCF7 cell proliferation
Protocol: as §1, with “(TCHu74, National Collection of Authenticated Cell Cultures)” for “expressing the ERα Y537S mutant were constructed by lentiviral infection. MCF7/ERα Y537S cells”, “serum.” for “serum and 1 g/mL puromycin.”, “experiment, MCF7” for “experiment,”, “μL” for “µL”, “μL/well.” for “µL/well.”

[4] = both sexes, beagle, dog, plasma, iv, i.v., 0.5 mg/kg
[5] = both sexes, beagle, dog, plasma, po, i.g., 2.0 mg/kg

Row | Structure (SMILES) | IC50 [2] [nM] | IC50 [3] [nM] | other results
1 | O=C1CCC(N2Cc3cc(N4CCN(CC5CCN(c6ccc([C@@H]7c8ccc(O)cc8CC[C@@H]7c7ccccc7)cc6)CC5)CC4)ccc3C2=O)C(=O)N1 (stereo partly shown) [Comparative Example 1, reference compound] | – | – | Clearance CL/F ([1]; i.v., 0.5 mg/kg): 2.8 mL/min/kg; AUC(0-t) [1, 4]: 2680 ng·h/mL; half-life [1, 4]: 486 min; Cmax [1, 4]: 600 ng/mL; Vd/F ([1]; both sexes, beagle, dog, plasma, po, i.g., 2.0 mg/kg, read-out: Apparent distribution volume Vz/F): 5.5 L/kg; AUC(0-t) [1, 5]: 4050 ng·h/mL; CL/F ([1]; both sexes, beagle, dog, plasma, po, i.g., 2.0 mg/kg, read-out: Clearance CL/F): 7.3 mL/min/kg; half-life [1, 5]: 540 min; Cmax [1, 5]: 324 ng/mL
2 | O=C1CC[C@H](N2Cc3cc(N4CCN(CC5CCN(c6ccc([C@@H]7c8ccc(O)cc8CC[C@@H]7C7CCOCC7)cc6F)CC5)CC4)ccc3C2=O)C(=O)N1 [Example 5, (S)-3-(5-(4-((1-(2-Fluoro-4-((1R,2R)-6-hydroxy-2-(tetrahydro-2H-pyran-4-yl)-1,2,3,4-tetrahydronaphthalen-1-yl)phenyl)piperidin-4-yl)methyl)piperazin-1-yl)-1-oxoisoindolin-2-yl)piperidine-2,6-dione] | 2.29 | 0.72 | –
3 | CC(C)[C@H]1CCc2cc(O)ccc2[C@H]1c1ccc(N2CCC(CN3CCN(c4ccc5c(c4)CN([C@H]4CCC(=O)NC4=O)C5=O)CC3)CC2)cc1 [Example 24, (S)-3-(5-(4-((1-(4-((1R,2R)-6-Hydroxy-2-isopropyl-1,2,3,4-tetrahydronaphthalen-1-yl)phenyl)piperidin-4-yl)methyl)piperazin-1-yl)-1-oxoisoindolin-2-yl)piperidine-2,6-dione] | 5.44 | 1.21 | –
4 | O=C1CCC(N2Cc3cc(N4CCN(CC5CCN(c6ccc([C@@H]7c8ccc(O)cc8CC[C@@H]7C7CCOCC7)cc6)CC5)CC4)ccc3C2=O)C(=O)N1 (mixture of isomers) [Example 8-1, 3-(5-(4-((1-(4-((1R,2R)-6-Hydroxy-2-(tetrahydro-2H-pyran-4-yl)-1,2,3,4-tetrahydronaphthalen-1-yl)phenyl)piperidin-4-yl)methyl)piperazin-1-yl)-1-oxoisoindolin-2-yl)piperidine-2,6-dione] | 2.8 | 0.46 | –
5 | O=C1CCC(N2Cc3cc(N4CCN(CC5CCN(c6ccc(C7c8ccc(O)cc8CC[C@@H]7C7CCOCC7)cc6)CC5)CC4)ccc3C2=O)C(=O)N1 (stereo partly drawn) [Example 7, 3-(5-(4-((1-(4-((1,2)-cis-6-Hydroxy-2-(tetrahydro-2H-pyran-4-yl)-1,2,3,4-tetrahydronaphthalen-1-yl)phenyl)piperidin-4-yl)methyl)piperazin-1-yl)-1-oxoisoindolin-2-yl)piperidine-2,6-dione] | 3.31 | 0.67 | –
6 | O=C1CCC(N2Cc3cc(N4CCN(CC5CCN(c6ccc([C@@H]7c8ccc(O)cc8CC[C@@H]7C7CC7)cc6)CC5)CC4)ccc3C2=O)C(=O)N1 (stereo partly drawn) [Example 16, 3-(5-(4-((1-(4-((1,2)-cis-2-Cyclopropyl-6-hydroxy-1,2,3,4-tetrahydronaphthalen-1-yl)phenyl)piperidin-4-yl)methyl)piperazin-1-yl)-1-oxoisoindolin-2-yl)piperidine-2,6-dione] | 14.9 | 4.63 | –
7 | O=C1CCC(N2Cc3cc(N4CCN(CC5CCN(c6ccc(C7c8ccc(O)cc8CCC78CCCC8)cc6)CC5)CC4)ccc3C2=O)C(=O)N1 (stereo not shown) [Example 1, 3-(5-(4-((1-(4-(6′-Hydroxy-3′,4′-dihydro-1′H-spiro[cyclopentane-1,2′-naphthalen]-1′-yl)phenyl)piperidin-4-yl)methyl)piperazin-1-yl)-1-oxoisoindolin-2-yl)piperidine-2,6-dione] | 14.9 | 6.15 | –
8 | O=C1CC[C@H](N2Cc3cc(N4CCN(CC5CCN(c6ccc([C@@H]7c8ccc(O)cc8CC[C@@H]7CC7CCC7)cc6)CC5)CC4)ccc3C2=O)C(=O)N1 [Example 35, (S)-3-(5-(4-((1-(4-((1R,2R)-2-(Cyclobutylmethyl)-6-hydroxy-1,2,3,4-tetrahydronaphthalen-1-yl)phenyl)piperidin-4-yl)methyl)piperazin-1-yl)-1-oxoisoindolin-2-yl)piperidine-2,6-dione] | 8.48 | 3 | –
9 | O=C1CCC(N2Cc3cc(N4CCN(CC5CCN(c6ccc([C@@H]7c8ccc(O)cc8CC[C@@H]7C7CCCCC7)cc6)CC5)CC4)ccc3C2=O)C(=O)N1 (mixture of isomers) [Example 15-1, 3-(5-(4-((1-(4-((1R,2R)-2-Cyclohexyl-6-hydroxy-1,2,3,4-tetrahydronaphthalen-1-yl)phenyl)piperidin-4-yl)methyl)piperazin-1-yl)-1-oxoisoindolin-2-yl)piperidine-2,6-dione] | 2.18 | 0.46 | –
10 | CC(C)(C)C[C@H]1CCc2cc(O)ccc2[C@H]1c1ccc(N2CCC(CN3CCN(c4ccc5c(c4)CN([C@H]4CCC(=O)NC4=O)C5=O)CC3)CC2)cc1 [Example 39, (S)-3-(5-(4-((1-(4-((1R,2R)-6-Hydroxy-2-neopentyl-1,2,3,4-tetrahydronaphthalen-1-yl)phenyl)piperidin-4-yl)methyl)piperazin-1-yl)-1-oxoisoindolin-2-yl)piperidine-2,6-dione] | 15.8 | 5.23 | –
11 | O=C1CC[C@H](N2Cc3cc(N4CCN(CC5CCN(c6ccc([C@@H]7c8ccc(O)cc8OC[C@@H]7C7CCC7)cc6)CC5)CC4)ccc3C2=O)C(=O)N1 [Example 32, (S)-3-(5-(4-((1-(4-((3R,4R)-3-Cyclobutyl-7-hydroxychroman-4-yl)phenyl)piperidin-4-yl)methyl)piperazin-1-yl)-1-oxoisoindolin-2-yl)piperidine-2,6-dione] | 28.8 | 8.34 | –
12 | O=C1CC[C@H](N2Cc3cc(N4CCN(CC5CCN(c6ccc([C@@H]7c8ccc(O)cc8CC[C@@H]7C7CCC7)cc6)CC5)CC4)ccc3C2=O)C(=O)N1 [Example 13-1, (S)-3-(5-(4-((1-(4-((1R,2R)-2-Cyclobutyl-6-hydroxy-1,2,3,4-tetrahydronaphthalen-1-yl)phenyl)piperidin-4-yl)methyl)piperazin-1-yl)-1-oxoisoindolin-2-yl)piperidine-2,6-dione] | 4.79 | 0.83 | –
